Measurements taken from article PMC11219871, “Epigenetic-based differentiation therapy for Acute Myeloid Leukemia” (Nature Communications, 2024).

How the values were obtained:
[1] = system: HL-60, ML-2, MOLM-13 and MV4-11; assay: γ-H2AX immunofluorescence (DNA damage); assay type: cell-based; conditions: daily treatment 48 hours, four AML cell lines
Method: authors should analyze this e.g by gH2AX immunofluorescence staining.
As positive control, HL-60 cells irradiated with an acute dose of 30 J/m2 UV for 2 minutes were
(see Reviewer Figure 22).

[2] = biological target: T1, cytochrome P450 1A2 (Homo sapiens, UniProt P05177); assay: CYP inhibition in human liver microsomes; assay type: in vitro ADME; conditions: 10 µM
T1 construct: Corning Cat # 452117); tissue Corning 452117; host or cells: human liver microsomes
T1 sequence (P05177 whole entry): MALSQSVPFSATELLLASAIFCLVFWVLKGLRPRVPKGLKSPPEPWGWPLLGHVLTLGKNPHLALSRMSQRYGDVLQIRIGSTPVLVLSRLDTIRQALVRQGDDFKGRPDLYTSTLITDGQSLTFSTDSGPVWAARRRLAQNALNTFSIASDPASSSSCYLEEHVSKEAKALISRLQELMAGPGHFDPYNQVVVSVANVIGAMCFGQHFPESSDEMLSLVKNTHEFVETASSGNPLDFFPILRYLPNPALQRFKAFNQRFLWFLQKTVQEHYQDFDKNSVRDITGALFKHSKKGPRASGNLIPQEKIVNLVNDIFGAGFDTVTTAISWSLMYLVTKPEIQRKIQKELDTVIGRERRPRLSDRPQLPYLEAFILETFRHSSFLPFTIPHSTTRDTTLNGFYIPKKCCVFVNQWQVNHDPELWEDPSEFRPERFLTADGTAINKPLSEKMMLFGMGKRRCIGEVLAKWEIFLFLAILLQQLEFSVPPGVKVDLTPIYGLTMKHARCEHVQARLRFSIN
Method: (§1) This study was conducted at Wuxi (http://www.wuxi.com/). The inhibitory effects of CM-444 and CM-1758 on five human cytochrome P450s (1A2, 2C9, 2C19, 2D6 and 3A4) were evaluated in human liver microsomes. Test compounds (10 µM final concentration) or control compounds (α-naphthoflavone, sulfaphenazole, (+)-N-3-benzylnirvanol, quinidine, ketoconazole; 3-µM final concentration), and the corresponding substrates for each P450 isoform (1A2: phenacetin, 10-µM final concentration; 2C9: diclofenac, 5-µM final concentration; 2C19: S-mephenytoin, 30-µM final concentration, 2D6: dextromethorphan, 5-µM final concentration; 3A4: midazolam, 2-µM final concentration) were incubated with human liver microsomes (0.2-mg/mL final concentration; Corning Cat # 452117) and NADPH cofactor (1-mM final concentration, Chem-impex Cat # 00616) for 10 min at 37 °C. The reaction was terminated by adding 400 µL of cold stop solution (200 ng/mL tolbutamide and labetalol in acetonitrile), and the samples were centrifuged at 1520 g for 20 min. Next, 200-μL aliquots of supernatants were diluted with 100 μL of ultra-pure water and shaken for 10 min. The samples were analyzed by LC-MS/MS using an analyte/internal standard peak area ratio. Test compounds and positive controls were tested in duplicate. The percentage of inhibition was calculated as the ratio of substrate metabolite detected in treated and non-treated wells.

[3] = biological target: T2, cytochrome P450 2C19 (Homo sapiens, UniProt P33261); assay: CYP inhibition in human liver microsomes; assay type: in vitro ADME; conditions: 10 µM
T2 construct: Corning Cat # 452117); tissue Corning 452117; host or cells: human liver microsomes
T2 sequence (P33261 whole entry): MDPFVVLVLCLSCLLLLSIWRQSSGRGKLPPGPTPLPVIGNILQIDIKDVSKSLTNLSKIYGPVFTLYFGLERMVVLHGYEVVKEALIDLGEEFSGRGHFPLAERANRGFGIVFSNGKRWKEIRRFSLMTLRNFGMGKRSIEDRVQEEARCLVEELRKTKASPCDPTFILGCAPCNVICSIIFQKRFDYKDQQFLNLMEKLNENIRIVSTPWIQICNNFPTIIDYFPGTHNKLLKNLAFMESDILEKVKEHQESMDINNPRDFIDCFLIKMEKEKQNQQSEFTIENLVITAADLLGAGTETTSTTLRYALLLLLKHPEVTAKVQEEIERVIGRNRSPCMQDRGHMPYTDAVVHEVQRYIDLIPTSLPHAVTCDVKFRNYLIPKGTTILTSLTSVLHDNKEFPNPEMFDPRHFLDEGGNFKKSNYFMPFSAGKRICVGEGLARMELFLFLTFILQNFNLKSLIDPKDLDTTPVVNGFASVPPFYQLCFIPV
Method: as §1

[4] = biological target: T3, cytochrome P450 2C9 (Homo sapiens, UniProt P11712); assay: CYP inhibition in human liver microsomes; assay type: in vitro ADME; conditions: 10 µM
T3 construct: Corning Cat # 452117); tissue Corning 452117; host or cells: human liver microsomes
T3 sequence (P11712 whole entry): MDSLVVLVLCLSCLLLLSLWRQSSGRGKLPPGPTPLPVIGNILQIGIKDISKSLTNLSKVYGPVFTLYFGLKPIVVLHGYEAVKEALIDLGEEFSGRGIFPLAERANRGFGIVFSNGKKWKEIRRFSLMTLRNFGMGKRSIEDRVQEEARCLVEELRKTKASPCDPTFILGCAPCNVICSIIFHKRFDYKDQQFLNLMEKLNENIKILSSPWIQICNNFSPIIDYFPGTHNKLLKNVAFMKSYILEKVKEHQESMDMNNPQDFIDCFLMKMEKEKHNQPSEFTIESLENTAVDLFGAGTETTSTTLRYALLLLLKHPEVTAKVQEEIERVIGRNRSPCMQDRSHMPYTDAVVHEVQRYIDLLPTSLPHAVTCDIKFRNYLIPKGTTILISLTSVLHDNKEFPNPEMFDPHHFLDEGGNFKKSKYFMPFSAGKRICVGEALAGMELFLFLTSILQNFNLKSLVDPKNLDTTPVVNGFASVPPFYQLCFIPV
Method: as §1

[5] = biological target: T4, cytochrome P450 2D6 (Homo sapiens, UniProt P10635); assay: CYP inhibition in human liver microsomes; assay type: in vitro ADME; conditions: 10 µM
T4 construct: Corning Cat # 452117); tissue Corning 452117; host or cells: human liver microsomes
T4 sequence (P10635 whole entry): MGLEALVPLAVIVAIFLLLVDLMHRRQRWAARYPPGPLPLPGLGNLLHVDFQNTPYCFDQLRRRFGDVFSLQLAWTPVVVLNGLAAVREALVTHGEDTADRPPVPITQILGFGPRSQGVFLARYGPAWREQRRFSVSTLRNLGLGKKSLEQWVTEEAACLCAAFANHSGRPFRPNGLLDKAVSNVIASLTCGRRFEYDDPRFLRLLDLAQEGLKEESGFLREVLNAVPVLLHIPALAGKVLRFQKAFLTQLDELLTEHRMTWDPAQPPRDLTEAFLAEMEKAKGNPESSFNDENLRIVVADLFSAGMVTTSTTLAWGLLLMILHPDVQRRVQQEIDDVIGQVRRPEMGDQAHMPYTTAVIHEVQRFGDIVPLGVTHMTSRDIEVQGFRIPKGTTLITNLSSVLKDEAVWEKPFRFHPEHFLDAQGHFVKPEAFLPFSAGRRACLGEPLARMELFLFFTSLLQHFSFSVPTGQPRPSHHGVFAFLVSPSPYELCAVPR
Method: as §1

[6] = biological target: T5, cytochrome P450 3A4 (Homo sapiens, UniProt P08684); assay: CYP inhibition in human liver microsomes; assay type: in vitro ADME; conditions: 10 µM
T5 construct: Corning Cat # 452117); tissue Corning 452117; host or cells: human liver microsomes
T5 sequence (P08684 whole entry): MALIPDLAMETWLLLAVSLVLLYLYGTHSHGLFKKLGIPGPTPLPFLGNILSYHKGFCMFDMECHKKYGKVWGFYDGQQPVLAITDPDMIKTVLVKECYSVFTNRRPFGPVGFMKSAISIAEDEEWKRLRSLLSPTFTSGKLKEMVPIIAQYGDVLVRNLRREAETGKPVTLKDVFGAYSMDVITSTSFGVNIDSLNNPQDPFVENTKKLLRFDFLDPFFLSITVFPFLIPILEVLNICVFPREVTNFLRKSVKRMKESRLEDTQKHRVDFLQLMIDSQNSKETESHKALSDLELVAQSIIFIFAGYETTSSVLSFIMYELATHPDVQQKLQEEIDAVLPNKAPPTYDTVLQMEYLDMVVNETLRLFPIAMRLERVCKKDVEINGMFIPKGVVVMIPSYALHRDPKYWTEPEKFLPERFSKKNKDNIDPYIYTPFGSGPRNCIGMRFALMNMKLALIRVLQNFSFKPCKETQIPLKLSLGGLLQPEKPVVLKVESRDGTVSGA
Method: as §1

[7] = Plasma protein binding (equilibrium dialysis); assay type: in vitro ADME; conditions: pH 7.4, Human
Method: This study was conducted by Equilibrium Dialysis at Wuxi (http://www.wuxi.com/). HT Dialysis plate (Model HTD 96 b, Cat# 1006) and the dialysis membrane (molecular weight cutoff of 12–14 kDa, Cat# 1101) were purchased from HT Dialysis LLC (Gales Ferry, CT). Human plasma (BioIVT, # […]2P2N) and CD-1 mouse plasma (Beijing Vital River Laboratory Animal Technology Co., Ltd.) were thawed prior to experiments under running cold tap water and centrifuged at 3320 × g for 5 min to remove any clots, and the pH was checked. Only plasma from pH 7.0 to 8.0 was used. The dialysis membrane was pretreated according to the manufacturer’s instructions. Test compounds and warfarin (control) were assayed at a final concentration of 2 μM. Aliquots of 50 μL loading plasma (matrix) containing test or control compound in triplicate were transferred to Sample Collection Plates, respectively. The samples were matched with opposite blank buffer to obtain a final volume of 100 μL with a volume ratio of plasma (matrix) to dialysis buffer (1:1, v-v) in each well immediately. […] Concentrations of test compounds in the starting solution (before dialysis), the plasma side of the membrane, and the buffer side of the membrane were quantified by LC-MS/MS using a peak area ratio of analyte/internal standard. The fraction of unbound, bound, and recovery were calculated. […]

SMILES | DNA damage (γ-H2AX) [1] | P450S Inhibition (1A2) [2] [%] | P450S Inhibition (2C19) [3] [%] | P450S Inhibition (2C9) [4] [%] | P450S Inhibition (2D6) [5] [%] | P450S Inhibition (3A4) [6] [%] | fraction unbound at 4 h, 2 µM [7]
COc1cc2nc(-c3cc(C)oc3C)cc(NCC3CCN(c4ncc(C(=O)NO)cn4)CC3)c2cc1OC [CM-1758, 2-[4-[[[2-(2,5-dimethyl-3-furyl)-6,7-dimethoxy-4-quinolyl]amino]methyl] -1-piperidyl]pyrimidine-5-carbohydroxamic acid] | do not induced DNA damage | 55.4 | 23.7 | 12.2 | 13.1 | 46.9 | 0.01
COc1cc2nc(-c3ccc(C)o3)cc(NCC3CCN(c4ncc(C(=O)NO)cn4)CC3)c2cc1OC [CM-444, 2-[4-[[[6,7-dimethoxy-2-(5-methyl-2-furyl)-4-quinolyl]amino]methyl]-1-piperidyl]pyrimidine-5-carbohydroxamic acid] | do not induced DNA damage | 58.8 | 5.6 | 0 | 10.8 | 50.8 | 0.011 ± 0.001
